Consider 15 compounds from patent US10844071B2, “Substituted [1,2,3]triazolo[4,5-d]pyrimidines that lower stress-induced p-tau” (BUCK INSTITUTE FOR RESEARCH ON AGING, priority 2015, dated 2020).

One data set deals with T1, CRF1 (Homo sapiens, UniProt P34998).
T1 sequence (P34998 24-415): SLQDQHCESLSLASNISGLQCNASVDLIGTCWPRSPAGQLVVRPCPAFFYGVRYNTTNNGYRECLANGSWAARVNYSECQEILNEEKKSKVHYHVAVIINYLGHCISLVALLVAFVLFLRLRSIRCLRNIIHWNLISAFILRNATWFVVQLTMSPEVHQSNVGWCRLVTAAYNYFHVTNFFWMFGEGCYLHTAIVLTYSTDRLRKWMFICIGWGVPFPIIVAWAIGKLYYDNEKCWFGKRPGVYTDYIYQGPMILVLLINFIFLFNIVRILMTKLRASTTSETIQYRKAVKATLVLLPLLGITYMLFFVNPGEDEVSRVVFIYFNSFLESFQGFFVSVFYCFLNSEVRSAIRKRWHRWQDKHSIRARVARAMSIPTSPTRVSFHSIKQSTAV
Nature of the data set: CRF1 binding (Ki). Conditions: Tertiary; read-out: CRF1 Ki.

Another data set can be described thus: Solubility in DMSO. The data set is classed as physicochemical.
The next data set can be described thus: PAMPA. Format: in vitro ADME. Particulars: Tertiary.
In data set [1] the test system is SH-SY5Y cells. Nature of the data set: Primary screen in SH-SY5Y cells (tau, p-tau). Format: cell-based. Particulars: for Tau % / p-Tau (%): Primary (SH-SY5Y); for p-tau / tau: SH-SY5Y cells, no CRF. As to the method:
(§1) As described below, in vitro studies were performed using SHSY-5Y cells. These cells are a useful neurological model that differentiate into cells with morphological and biochemical characteristics of mature neurons including mature isoforms of tau.
However, J04 did lower p-tau to the same level as J03 and significant may not have been reached due to low N #.

Data set [2] deals with SH-SY5Y cells. The data set can be described thus: Secondary screen in SH-SY5Y cells with CRF stimulation (tau, p-tau, sAPPα). The data set is classed as cell-based. As to the method:
as §1
In an initial study, SHSY-5Y cells were cultured without serum to induce differentiation and increase tau expression. […] The increases were proportional and both were about 50%. J03 (FIG. 4A) reduced the CRF-induced tau increases more than the p-tau increases. The increase in p-tau with CRF was expected, but the increase in tau less predictable as CRF reduces neuronal differentiation (see Chen et al. (2004) Proc. Natl. Acad. Sci. USA, 101(44): 15782-15787), however, it can increase tau accumulation.

A short description of data set [3]: In vivo pharmacokinetics, brain and plasma levels. Further details: species or system mouse.
In another data set the test system is J20 mice. The data set can be described thus: J17 pilot study in J20 mice (oral, 28 days). Format: in vivo, mouse. As to the method:
Animal experiments were performed using J20 mice. The J20 mouse is a model of for Alzheimer's disease. This model overexpresses human APP with two mutations linked to familial Alzheimer's disease (the APP KM670/671NL (Swedish) and […] (Indiana) mutations).
In a J17 pilot study (#1 pilot study) male and female J20 mice were housed singly and treated with J17 at 10 mkd by oral delivery for 28 days. […]

Where [4] appears, read: organic solvent or mixture, read-out: Solubility.
Setting [5] is: Secondary (SH-Sy5Y, CRF stimulation).
Setting [6] is: subcutaneous injection of 10 mg/kg.
The mark [7] stands for this setting: SH-SY5Y cells, CRF-induced increase.

Converted amounts (≈) assume the structure as drawn. Where a name gives a salt, the structure may show the parent alone. Read-outs that look alike come from different tables or passages of the source. Some results are limits rather than exact numbers.

As to `CCC(COC)n1nnc2c(Nc3ccc(Cl)cc3C)nc(C)nc21` (stereo not shown) [Compound J08], the Ki on CRF1 came to 15 nM. The solubility in “Solubility in DMSO” (setting [4]) was approximately 10 mM (≈ 3610 µg/mL). In the data set “PAMPA”, this compound displayed a PAMPA of 1.27. Also, the Tau % result with SH-SY5Y cells [1] is on record as “Unchanged”. The “sAPPα (%)” value in the data set on SH-SY5Y cells [2] (setting [5]) was “Unchanged”.
Take `CCC(COC)n1nnc2c(N(C)C3CC3)nc(C)nc21` (stereo not shown) [Compound J11]: the Ki on CRF1 is more than 1000 nM. For the same compound, in “Solubility in DMSO” (setting [4]), the solubility was approximately 10 mM (≈ 2900 µg/mL). In the data set “PAMPA”, the PAMPA was 0.94. Also, the Tau % result in the data set on SH-SY5Y cells [1] is “Unchanged”. Moreover, the “sAPPα (%)” value in the data set on SH-SY5Y cells [2] (setting [5]) is on record as “Unchanged”.
In the case of `CCC(COC)n1nnc2c(N3CCCC3)nc(C)nc21` (stereo not shown) [Compound J10], the solubility in the data set “Solubility in DMSO” (setting [4]) is approximately 10 mM (≈ 2900 µg/mL). For the same compound, in the data set on SH-SY5Y cells [1], the Tau % result was “Unchanged” and the “p-Tau (%)” value is reported as “Unchanged”.
Turning to `CCC(COC)Nc1nc(C)nc2c1nnn2-c1ccc(Cl)cc1C` (stereo not shown) [Compound J19, 3-(4-Chloro-2-methylphenyl)-N-(1-methoxybutan-2-yl)-5-methyl-3H-[1,2,3]triazolo[4,5-d]pyrimidin-7-amine], in data set [3] (SQ injection at 10 mkd), the “brain levels at the peak” value is on record as approximately 190 ng/g and the “time of peak brain level after injection” value came out at 4 h. Moreover, the “brain levels with oral delivery compared to SQ” value in data set [3] (oral delivery, detectable from 1 to 6 hours) is listed as “much lower”. In the data set “Solubility in DMSO” (setting [4]), the solubility is approximately 10 mM (≈ 3610 µg/mL). The PAMPA in the data set “PAMPA” turned out to be 0.75. For the same compound, in the data set with SH-SY5Y cells [1] (FIG. 29), the p-tau/tau ratio entry is “unchanged”. In addition, in the data set on SH-SY5Y cells [1], the p-tau result is reported as “decreased” and the tau entry is reported as “decreased”. Also, the p-tau/tau ratios result in the data set with SH-SY5Y cells [2] (50 and 100 nM CRF, FIG. 28 panel C) was “highly significantly decreased”. In addition, the sAPPα entry in the data set on SH-SY5Y cells [2] (FIG. 28 panel D, significance for J03 at 100 nM CRF) is on record as “trend for sAPPα to be higher”. For the same compound, the “sAPPα (%)” value with SH-SY5Y cells [2] (setting [5]) was “Unchanged”. The tau entry with SH-SY5Y cells [2] (absence of CRF and presence of 100 nM CRF, FIG. 28 panel A) was “trend to decrease”. Besides, in the data set on SH-SY5Y cells [2] (presence and absence of CRF, FIG. 28 panel B), the p-tau result was “significantly reduced”.
On to `CCC(COC)n1nnc2c(N(C)c3c(C)cc(C)cc3C)nc(C)nc21` (stereo not shown) [Compound J14], for which, on CRF1, the Ki came out at 25 nM. Moreover, in the data set “Solubility in DMSO” (setting [4]), the solubility is approximately 10 mM (≈ 3680 µg/mL). Also, the PAMPA in the data set “PAMPA” came to 1.11. Besides, the Tau % result with SH-SY5Y cells [1] is recorded as “Unchanged”.
In the case of `CCC(COC)n1nnc2c(Nc3ccc(OC)cc3OC)nc(C)nc21` (stereo not shown) [Compound J09], in “Solubility in DMSO” (setting [4]), the solubility is approximately 10 mM (≈ 3720 µg/mL). Moreover, the Tau % result with SH-SY5Y cells [1] is “Unchanged”.
`CCC(COC)Nc1nc(C)nc2c1nnn2-c1ccc(OC)cc1C` (stereo not shown) [Compound J17]: in data set [3] (oral delivery, 10 mg/kg), the brain levels is given as approximately 50 ng/g and the “plasma levels relative to brain levels” value is recorded as approximately 10 fold. In data set [3] (setting [6]), this compound had a brain levels of approximately 400 ng/g and a plasma levels of approximately 4000 ng/m. The Ki at CRF1 is 30 nM. In “Solubility in DMSO” (setting [4]), the solubility was approximately 10 mM (≈ 3560 µg/mL). The same compound returned a PAMPA in “PAMPA” of 0.64. The novel object preference result in the data set on J20 mice (all mice) is given as “increase with J17 was significant”. Moreover, the sAPPα entry with J20 mice (both genders) is given as “increase with J03 but not J17”. In the data set on J20 mice (males), the p-tau/tau ratio entry was “lower still and just missed significance”; the sAPPα/sAPPβ ratio result was “greater”. In addition, the “activity (total interactions)” value in the data set with J20 mice (not significant) is listed as “lowered”. Besides, the sAPPβ entry in the data set on J20 mice (one high outlier eliminated) is reported as “decrease”. In the data set on SH-SY5Y cells [1], the p-tau result was “significantly lower” and the tau result was “significantly lower”. For the same compound, in the data set on SH-SY5Y cells [2] (setting [7]), the “p-tau after CRF exposure” value is on record as “decreased” and the “tau after CRF exposure” value is on record as “decreased”. In addition, in the data set with SH-SY5Y cells [2] (SH-SY5Y cells, FIG. 19), the “sAPPα after CRF exposure” value is “same as control”. Also, the “sAPPα (%)” value in the data set with SH-SY5Y cells [2] (setting [5]) was “Unchanged”. Besides, the “sAPPα with increasing concentrations of CRF” value with SH-SY5Y cells [2] (without CRF and at 50 nM CRF, FIG. 20) is recorded as “lack of increase”.
Take `CCC(COC)N(C)c1nc(C)nc2c1nnn2-c1ccc(OC)cc1C` (stereo not shown) [J20 HCl]: the solubility in “Solubility in DMSO” (setting [4]) is approximately 10 mM. Moreover, the Tau % result in the data set on SH-SY5Y cells [1] is listed as “Unchanged”.
On to `CCC(COC)n1nnc2c(Nc3ccc(OC)cc3C)nc(C)nc21` (stereo not shown) [Compound J04], for which the brain levels in data set [3] (after SQ injection or oral delivery) was 55 ng/g. In addition, the Ki at CRF1 turned out to be 15 nM. In the data set “Solubility in DMSO” (setting [4]), the solubility was approximately 10 mM (≈ 3560 µg/mL). Moreover, in “PAMPA”, the PAMPA was determined as 0.44. In the data set with SH-SY5Y cells [1], the Tau % entry is reported as “Unchanged”; the p-tau entry is on record as “did lower p-tau, although not significantly”; the tau entry was “did not lower”.
With `CCC(COC)n1nnc2c(N(C)C3CCOCC3)nc(C)nc21` (stereo not shown) [Compound J15], the Ki on CRF1 was more than 1000 nM. Further, the solubility in the data set “Solubility in DMSO” (setting [4]) was approximately 10 mM (≈ 3340 µg/mL). The compound further registered a PAMPA in “PAMPA” of 0.34. For the same compound, in the data set with SH-SY5Y cells [1], the Tau % result was “Unchanged” and the “p-Tau (%)” value is recorded as “↓>10%”. In addition, in the data set with SH-SY5Y cells [2] (setting [5]), the Tau % entry is listed as “↓>30%”, the “p-Tau (%)” value is “↓>30%” and the “sAPPα (%)” value is listed as more than 10%.
Consider `CCC(COC)n1nnc2c(N3CC(C)CC(C)C3)nc(C)nc21` (stereo not shown) [Compound J12], for which the Ki on CRF1 was more than 1000 nM. In addition, in the data set “Solubility in DMSO” (setting [4]), the solubility is approximately 10 mM (≈ 3320 µg/mL). The compound further came in with a PAMPA in the data set “PAMPA” of 2.39. In the data set on SH-SY5Y cells [2] (setting [5]), the “sAPPα (%)” value is “Unchanged”.
For `CCC(COC)Nc1nc(C)nc2c1nnn2-c1ccc(OC)cc1C` (stereo not shown) [J17 HCl], in the data set “Solubility in DMSO”, the solubility result was “≈10 mM”. Further, in the data set on SH-SY5Y cells [1], the Tau % result is given as “Unchanged” and the “p-Tau (%)” value is listed as “Unchanged”.
Regarding `CCC(COC)n1nnc2c(Nc3ccc(F)cc3C)nc(C)nc21` (stereo not shown) [Compound J06], on CRF1, the Ki is more than 1000 nM. The solubility in the data set “Solubility in DMSO” (setting [4]) was approximately 10 mM (≈ 3440 µg/mL). The Tau % result with SH-SY5Y cells [1] is “Unchanged”. Besides, the “p-Tau (%)” value with SH-SY5Y cells [2] (setting [5]) is recorded as “Unchanged”.
On to `CCC(COC)n1nnc2c(Nc3ccc(C)cc3C)nc(C)nc21` (stereo not shown) [Compound J05], for which the solubility in the data set “Solubility in DMSO” (setting [4]) was approximately 10 mM (≈ 3400 µg/mL). This compound returned a PAMPA in “PAMPA” of 0.99.
In the case of `CCC(COC)n1nnc2c(Nc3ccc(F)cc3F)nc(C)nc21` (stereo not shown) [Compound J07], at CRF1, the Ki is more than 1000 nM. Moreover, the solubility in the data set “Solubility in DMSO” (setting [4]) is approximately 10 mM (≈ 3480 µg/mL). In “PAMPA”, this compound had a PAMPA of 0.72.
